# Reference: US7893108B2, “Antiviral methods and compositions” (priority 2004, dated 2011)
# pIC50: −log10 of the molar value. “And” between values parts separate entries of the source, which are not always exact repeats. Equal entries are not always repeated. Where two headings read alike, the source gives them in different places.
# How the values were obtained:
# HCMV AD169 = experiment: virus yield reduction assay; format: cell-based, human cytomegalovirus
# Method: Next, we tested the effects of selected compounds and of GCV as a control in viral yield assays, which measure the titer of virus progeny produced following infection at relatively high multiplicity. In these assays, the viral titer was measured at two different times points post-infection (p.i.): at 96 hrs, when the release of virus progeny is increasing, and at 120 hrs, when the titer of virus progeny after a single cycle of replication reaches peak levels (Stinski, 1983).
# (§1) For yield reduction assays, HFF cells were plated at 2×10^4 cells per well in 96-well cluster dishes, incubated overnight, and infected with HCMV AD169 at a multiplicity of infection (MOI) of 1. After virus adsorption for 2 hr at 37° C., cells were washed and incubated with 200 μl of fresh media containing test compounds at increasing drug concentration. Plates were incubated for 3 or 5 days at 37° C. and subjected to one cycle of freezing and thawing, and titers were determined by transferring 100-μl aliquots from each of the wells to a fresh 96-well monolayer culture of HFF cells followed by 1:5 serial dilution across the plate. Cultures were incubated for 7 days, cells were stained, and the numbers of plaques were determined as described above.
# as §1, with “The effect of the compounds was assessed in an assay of virus yield. In this assay, cells are infected at a relatively high multiplicity of infection (about one per cell) and then drug is added. The virus produced at the different times post infection is measured. 120 hrs. is about the peak titer. This assay was conducted as follows.” for “For yield reduction assays,”, “20,000” for “2×10^4”, “an MOI” for “a multiplicity of infection (MOI)”, “0.1, 0.3, 1, 3, 10, 30 μM” for “increasing”
# UL54 plus GST-UL44ΔC290 = target: T1, UL54 plus GST-UL44ΔC290 (Human cytomegalovirus, UniProt P16790); experiment: long-chain DNA synthesis by UL54 in the presence of UL44; format: biochemical, HCMV; settings: for inhibition of long-chain DNA synthesis by UL54 and UL44: dose-response; for inhibition of long-chain DNA synthesis by UL54 and UL44 at one concentration: 40 μM
# T1 construct: GST-UL44ΔC290 fusion protein, which contains the N-terminal 290 residues of HCMV UL44; made in house; host or cells: UL54: in vitro transcription/translation; GST-UL44ΔC290: E. coli BL21 (DE3)pLysS
# T1 sequence (P16790 1-290, stated change not applied): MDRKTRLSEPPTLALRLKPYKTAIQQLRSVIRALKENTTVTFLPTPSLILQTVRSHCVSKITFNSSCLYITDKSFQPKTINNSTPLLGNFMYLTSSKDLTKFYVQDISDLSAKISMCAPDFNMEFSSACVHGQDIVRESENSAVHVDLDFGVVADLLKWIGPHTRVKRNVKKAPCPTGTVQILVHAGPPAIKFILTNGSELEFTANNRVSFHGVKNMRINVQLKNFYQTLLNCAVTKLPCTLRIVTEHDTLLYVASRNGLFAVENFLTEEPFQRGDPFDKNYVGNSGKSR
# Method: To analyze the ability of the compounds to interfere with functional UL54-UL44 interactions, we tested their ability to inhibit long-chain DNA synthesis by UL54 in the presence of UL44 employing a poly(dA)-oligo(dT)12-18 template-primer.
# DNA polymerase assays. The effects of compounds were tested in an assay that measures long-chain DNA synthesis as described in Loregian et al. (Loregian et al., 2004a), with 5 μl of in vitro-transcribed and -translated UL54 plus 800 fmol of GST-UL44ΔC290 in the absence or in the presence of various amounts of each compound.
# The effect of the compounds was also tested in an assay that measures long chain (Lc) DNA synthesis as described in Loregian et al., J. Virol. […]
# [1] = target: T2, full-length UL54 / UL44 interaction (Human cytomegalovirus, UniProt P16790); experiment: UL54-UL44 interaction ELISA; format: binding, HCMV; settings: concentrations up to 200 μM
# T2 construct: made in house; host or cells: baculovirus expression; proteins provided by H. S. Marsden (Institute of Virology, Glasgow)
# T2 sequence (P16790 whole entry): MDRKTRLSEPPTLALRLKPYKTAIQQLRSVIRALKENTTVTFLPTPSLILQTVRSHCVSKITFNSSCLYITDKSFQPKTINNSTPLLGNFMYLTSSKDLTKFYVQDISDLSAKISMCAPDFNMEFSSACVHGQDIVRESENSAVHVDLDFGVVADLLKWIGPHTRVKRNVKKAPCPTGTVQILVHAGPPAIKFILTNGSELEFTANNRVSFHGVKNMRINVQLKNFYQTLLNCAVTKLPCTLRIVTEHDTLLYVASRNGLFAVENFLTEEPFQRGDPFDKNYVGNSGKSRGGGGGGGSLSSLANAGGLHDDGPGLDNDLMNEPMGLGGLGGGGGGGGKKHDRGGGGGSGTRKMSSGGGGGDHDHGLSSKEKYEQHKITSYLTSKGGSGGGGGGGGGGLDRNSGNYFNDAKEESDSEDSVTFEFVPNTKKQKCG
# Method: In this assay, binding between purified baculovirus-expressed UL54 and UL44, which was tagged with an EEF epitope, was detected using an antibody that recognizes the epitope tag (Loregian et al., 2003).
# UL54-UL44 interaction ELISA. This assay was conducted as described in (Loregian et al., 2003), testing various concentrations of each compound. After final washes, the chromogenic substrate 2,2′-azino-bis(3-ethylbenzothiazoline-6-sulphonic acid (ABTS, Pierce) in citrate phosphate buffer (pH 4.0) containing 0.01% hydrogen peroxide was added and absorbance was read at 405 nm on a Victor plate reader (Wallac).
# Another assay that was used to test the effect of the compounds on the interaction of UL44 and UL54 is an ELISA interaction assay, which measures the interaction of the two full length proteins with each other. This assay was conducted as described in Loregian et al., J. Virol. 2003, 77:8336-8344, testing different concentrations (0, 3.12, 6.25, 12.5, 25, 50, 100, 200 μM) of each compound.
# HFF cells = experiment: XTT cytotoxicity assay; format: cell-based, human
# Method: Cytotoxicity assays. HFF cells were seeded at 2×10^4, 4×10^3, or 10^3 cells per well into 96-well plates and, after a 3-hr incubation to allow cell attachment, were treated for 24, 72, or 120 hr, respectively, with various concentrations of each compound in duplicate. Cell viability was then determined with an XTT assay (Roche Molecular Biochemicals) according to the manufacturer's protocol by using a Victor plate reader (Wallac).
# The cytotoxicity of the compounds was measured in an XTT assay. XTT is a compound that is converted to a product that can be measured […], but only by viable cells. This assay is as follows. HFF (human foreskin fibroblasts) cells were seeded at different concentrations into 96-well plates and treated with various concentrations (from 0 to 200 μM) of each compound in duplicate for 24, 72 or 120 hr. Cell viability was then determined with an XTT assay (Roche Molecular Biochemicals) according to the manufacturer's protocol by using a Victor plate reader (Wallac).
# HCMV strain AD169 = experiment: plaque reduction assay; format: cell-based, human cytomegalovirus; settings: HFF cells; 0-30 μM
# Method: Antiviral assays. Plaque reduction assays were performed essentially as follows: HFF (human foreskin fibroblast) cells were seeded at 2×10^5 cells per well in 24-well cluster dishes. The next day, cells were infected with HCMV (strain AD169) at 80 PFU per well in DMEM plus 5% fetal bovine serum (FBS) at 37° C. Two hours post-infection, the inocula were removed, cells were washed, and media containing various drug dilutions, 5% FBS, and 0.6% methylcellulose were added. All drug dilutions were tested at least in duplicate. After incubation at 37° C. for 10-11 days, cell monolayers were stained with crystal violet and plaques were counted under light microscopy.
# The effect of the compounds was assessed in a plaque reduction assay that measures the number of plaques formed in the presence of varying concentrations of a drug, as follows. HFF were seeded at 2×10^5 cells per well in 24-well cluster dishes. The next day, they were infected with HCMV AD169 at 80 PFU per well in DMEM plus 5% FBS at 37° C. Two hr post-infection, the inocula were then removed, cells were washed, and media containing selected drug dilutions (0, 0.1, 0.3, 1, 3, 10, 30 μM), and 5% FBS and 0.6% methylcellulose were added. All drug dilutions were tested at least in duplicate. After incubation at 37° C. for 10-11 days, cell monolayers were stained with crystal violet and plaques were enumerated under light microscopy.
# [2] = target: T3, GST-UL44ΔC290 / UL54-derived peptide interaction (Human cytomegalovirus, UniProt P16790); experiment: biochemical; format: binding, HCMV; settings: 2.5 μM GST-UL44ΔC290 and 3 nM labeled peptide
# T3 construct: GST-UL44ΔC290 fusion protein, which contains the N-terminal 290 residues of HCMV UL44; made in house; host or cells: E. coli BL21 (DE3)pLysS
# T3 sequence (P16790 1-290, stated change not applied): as the sequence (P16790 1-290, stated change not applied) above
# Text: To identify small molecule inhibitors of the UL54-UL44 interaction, we developed an assay based on fluorescence polarization (FP) (Dandliker et al., 1981). In this assay, a peptide corresponding to the C-terminal 22 residues of UL54 (here named peptide 1, as in Loregian et al. (Loregian et al., 2003)), which was labeled with the fluorophore Oregon Green, is mixed with UL44ΔC290, a truncated protein which retains all known biochemical activities of full-length UL44 (Loregian et al., 2004b), fused to glutathione S-transferase (GST-UL44ΔC290).
# We next investigated whether this assay could detect a known inhibitor of the UL54-UL44 interaction. To this end, a binding reaction of 2.5 μM GST-UL44ΔC290 and 3 nM labeled peptide was titrated with increasing concentrations of unlabeled peptide 1 (FIG. 4B).
# FP assays. Unless otherwise indicated, […] of Oregon Green-labeled peptide 1 was added to 2.5 μM GST-UL44ΔC290 in 50 mM Tris-HCl (pH 7.5), 2 mM dithiothreitol, 0.5 mM EDTA, 150 mM NaCl, 4% glycerol and 100 μg/ml bovine serum albumin and kept on ice until the mix was distributed into black 384-well plates (Nunc) in a total volume of 40 μl per well. For high throughput screening, small molecules (5 mg/ml in DMSO) of the Maybridge, Bionet, Peakdale, ChemDiv, and Chembridge Microformat libraries were obtained from the ICCB, and 100 nl of each compound were transferred to individual wells using 384-pin arrays. All compounds were tested in duplicate. As controls, reaction mixtures containing either labeled peptide 1 only, or GST-UL44ΔC290 plus labeled peptide 1 (no compound), or GST-UL44ΔC290 plus labeled peptide 1 in the presence of 3 μM or 20 μM of unlabeled peptide 1, were included on each screening plate. After 15-min incubation at room temperature, FP values were determined by using an Analyst plate reader (LJL Biosystems) at the ICCB.
# A fluorescence polarization (FP) assay was used to identify compounds that inhibit HCMV polymerase subunit interactions. Compounds from the Harvard Institute of Chemistry and Cell Biology (ICCB, Harvard Medical School) were screened as follows. 3 nM of a synthetic peptide corresponding to the C-terminal 22 residues of HMCV UL54 (termed peptide 1 in Loregian et al., J. Virol. 2003, 77:8336-8344) and N-terminally labeled with Oregon Green was added to 2.5 μM GST-UL44ΔC290 in 50 mM Tris-HCl (pH 7.5), 2 mM DTT, 0.5 mM EDTA, 150 mM NaCl, 4% Glycerol and 100 μg/ml bovine serum albumin and kept on ice until the mix was distributed into black 384-well plates (Nunc) in a total volume of 40 μl per well. […] After 5-min incubation at room temperature, the FP values were determined by using an Analyst plate reader (LJL Biosystems) at the ICCB. […]
# [3] = IC50 for inhibition of FP (UL44-UL54 peptide interaction)
# [4] = read-out: IC50 for inhibition of FP (UL44-UL54 peptide interaction)
compound,measurement,setting,value
CCOc1cc(C2C(C#N)=C(N)Oc3n[nH]c(-c4ccccc4)c32)cc([N+](=O)[O-])c1O (stereo not shown) [AL1],effect on virus yield / HCMV replication,HCMV AD169,little or no effect
same,inhibition of long-chain DNA synthesis by UL54 and UL44,UL54 plus GST-UL44ΔC290,little or no inhibition
CCOc1cc(C2C(C#N)=C(N)Oc3n[nH]c(-c4ccc(Cl)cc4)c32)cc([N+](=O)[O-])c1O (stereo not shown) [AL3],effect on virus yield / HCMV replication,HCMV AD169,little or no effect
same,inhibition of the UL54-UL44 physical interaction,[1],did not significantly inhibit
same,inhibition of long-chain DNA synthesis by UL54 and UL44,UL54 plus GST-UL44ΔC290,little or no inhibition
CCOc1cc(C2C(C#N)=C(N)Oc3n[nH]c(-c4cc(OC)c(OC)c(OC)c4)c32)cc([N+](=O)[O-])c1O (stereo not shown) [AL4],effect on virus yield / HCMV replication,HCMV AD169; HFF cells,little or no effect
Cn1c(=O)cc2c3c(c(N4CCCCC4)ccc31)C(=O)c1ccccc1-2 [AL5],effect on virus yield / HCMV replication,HCMV AD169,relatively low IC50s
same,cytotoxic concentration relative to antiviral concentration,HFF cells,7-500 fold
same,cytotoxicity,HFF cells,relatively high CC50's
same,inhibition of the UL54-UL44 physical interaction,[1],potent
same,IC50s in plaque reduction assay,HCMV strain AD169,relatively low IC50s
same,inhibition of long-chain DNA synthesis by UL54 and UL44 at one concentration,UL54 plus GST-UL44ΔC290,severely decreased formation of long DNA products
same,inhibition of long-chain DNA synthesis by UL54 and UL44,UL54 plus GST-UL44ΔC290,relatively low IC50s
COc1ccccc1C=C1N=C(c2ccc(OC)c(OC)c2)N(c2cccc(F)c2)C1=O [AL6],cytotoxicity,HFF cells,significant cytotoxicity
Cc1ccc(-c2nc3nc(-c4ccc(Br)cc4)cn3nc2-c2ccc(C)cc2)cc1 [AL8],pIC50,[2]; [3],> 4.30 and 4.52 to 5.30
same,inhibition of long-chain DNA synthesis by UL54 and UL44,UL54 plus GST-UL44ΔC290,inactive
CCN1C=CC(=CC=Cc2ccc3ccccc3[n+]2CC)c2ccccc21 [AL10],cytotoxicity,HFF cells,significant cytotoxicity
same,pIC50,[2]; [3],> 4.30 and 4.52 to 5.30
CCn1c2ccccc2c2cc3cc4ccccc4cc3cc21 [AL11],cytotoxicity,HFF cells,significant cytotoxicity
O=c1c2cccc3cccc(c32)c2nc3ccccc3n12 [AL12],effect on virus yield / HCMV replication,HCMV AD169; HFF cells,relatively low IC50s
same,cytotoxic concentration relative to antiviral concentration,HFF cells,7-500 fold
same,cytotoxicity,HFF cells,relatively high CC50's
same,inhibition of the UL54-UL44 physical interaction,[1],potent
same,IC50s in plaque reduction assay,HCMV strain AD169,relatively low IC50s
same,inhibition of long-chain DNA synthesis by UL54 and UL44 at one concentration,UL54 plus GST-UL44ΔC290,severely decreased formation of long DNA products
same,inhibition of long-chain DNA synthesis by UL54 and UL44,UL54 plus GST-UL44ΔC290,relatively low IC50s
CN(C)c1ccc2nc3c(=O)[nH]c(=O)[nH]c3nc2c1 [AL13],cytotoxicity,HFF cells,significant cytotoxicity
same,pIC50,[2]; [4],4.30
CNC(=S)NN=Cc1cc(Br)ccc1O [AL14],cytotoxicity,HFF cells,significant cytotoxicity
O=C1CC(=O)c2c1cccc2[N+](=O)[O-] [AL15],pIC50,[2]; [4],4.22
O=C1c2cccc3c([N+](=O)[O-])ccc(c23)C(=O)N1Cc1cccnc1 [AL19],cytotoxicity,HFF cells,significant cytotoxicity
